Reference: patent US9458194B2, “Compounds useful in the treatment and/or care of the skin and their cosmetic or pharmaceutical compositions” (Lubrizol Advanced Materials, Inc., priority 2013, dated 2016)

Experiments:
Type in all cases: cell-based
[1] = test system: type-I collagen; experiment: Type-I collagen synthesis in human dermal fibroblasts (ELISA); settings: 0.01 μg/ml, 48 hours, vs negative control
Experimental: Stimulation of type-I collagen synthesis induced by cosmetic active ingredients was assessed by means of an ELISA (Enzyme-Linked Immunosorbent Assay) method.
Human dermal fibroblasts were trypsinized and seeded at a density of 5×10^4 cells/well in 48-well plates. After 24 hours of incubation at 37° C., 5% CO2, with a humidified atmosphere, a new medium was added with 0.01 μg/mL Ac-L-Asp-L-Val-L-Lys-L-Tyr-OH. Untreated cells were used as negative controls. The cells were incubated for an additional 48 hours at 37° C., 5% CO2, with humidified atmosphere. Subsequently, the medium was collected from each well to be analyzed by ELISA. A calibration curve with type-I collagen was prepared (Sigma) and the dilutions of this calibration curve were transferred to 96-well plates together with the mediums collected from the cells. The plates were left at 4° C. in a humid atmosphere for one night. Next the wells were washed three times with a washing solution prepared with PBS at 0.05% of Tween-20 (Sigma) and then any non-specific binding of the primary antibody with a solution of PBS at 3% BSA (sigma) was blocked. […] The reaction was stopped adding a solution of H2SO4 3 M and the absorbency reading was carried out at a wave length of 490 nm in a TECAN GENios spectrophotometric reader. […]

[2] = test system: human dermal fibroblasts (HDFa); experiment: Gene expression profile of human dermal fibroblasts (microarray, GSEA); settings: 0.05 mg/ml, 24 hours
Experimental: Adult human dermal fibroblasts (HDFa) were seeded (12.5×10^4 cells/vial T25 cm^2), and were incubated in complete medium 106 for 7 days at 37° C. in an atmosphere with 5% CO2. After the incubation, the cells were treated for 24 hours at 37° C. in an atmosphere with 5% CO2 with 0.05 mg/ml of the compound Ac-L-Asp-L-Val-L-Lys-L-Tyr-OH in complete medium 106 or in complete medium 106 as a negative control. The incubations and the treatments were carried out in duplicate for each condition.
After the treatments, RNA was extracted and purified, the quality and quantity was verified and the marking was carried out as was the hybridization of the samples in a human gene expression microarray (ASurePrint G3, Agilent). […] Next an evaluation of the genes by means of GSEA was carried out to encompass these genes according to their function/biological route. 24 hours after the treatments, the cells were lysed and the RNA was extracted and purified from each replica and each condition by means of the RNeasyPlus Mini kit by Qiagen. The lysed cells were briefly homogenized and the RNases were inactivated. The samples were passed through special RNA binding columns and after several microcentrifugation washes to eliminate contaminants and impurities, the purified RNA was eluted with 50 μl of ultrapure water. The purity, integrity and concentration of the RNA obtained were evaluated by means of spectrophotometry (Nanodrop) and with a bioanalyzer (Agilent Bioanalyzer).
The normalized values obtained with the treatment were compared with the normalized values obtained with the negative control to obtain genes with differential expression. […] The values obtained are also evaluated by means of GSEA (Gene Set Analysis Enrichment) to group together the genes with differential expression in terms of Gene Ontology and Biological Routes and the sets of genes with an expected proportion of incorrectly rejected null hypotheses were selected as significant (FDR) <25%. The results obtained are shown below in three different tables in which different families of genes are grouped together (collagen genes, genes involved in collagen synthesis and genes involved in cell adhesion).

[3] = test system: elastin; experiment: Elastin synthesis in human dermal fibroblasts (Fastin Elastin Assay); settings: 0.01 μg/ml, 48 hours, vs negative control
Experimental: Stimulation of elastin synthesis induced by Ac-L-Asp-L-Val-L-Lys-L-Tyr-OH was evaluated by means of a quantitative method of staining, Fastin Elastin Assay (Tebu-Bio). Human dermal fibroblasts were trypsinized and seeded at a density of 7×10^4 cells/well in 6-well plates. After 72 hours of incubation at 37° C., 5% CO2, with a humidified atmosphere, a new medium was added with 0.01 μg/mL Ac-L-Asp-L-Val-L-Lys-L-Tyr-OH. Untreated cells were used as negative controls and cells treated with TGF-1β (Peprotech) were used as positive controls. The cells were incubated for an additional 48 hours at 37° C., 5% CO2, with humidified atmosphere. Subsequently, the elastin was solubilized and extracted, for which the cells were washed twice with PBS (Sigma) and a solution was added to uncouple the cells (Cell Dissociation Solution, Sigma). The suspension of cells was transferred to centrifuge tubes, 1 M Oxalic Acid was added provided by the kit and they were incubated at 100° C. for 1 hour. Once the elastin became soluble, a calibration curve was prepared with the elastin provided with the kit. From that point, the samples and dilutions of the calibration curve were processed following the kit instructions to isolate and stain the elastin. Lastly, the dye was extracted and the absorbency reading was carried out at a wave length of 540 nm in a TECAN GENios spectrophotometric reader.

Substance: Ac-L-Asp-L-Val-L-Lys-L-Tyr-OH (Ac-DVKY-OH)
- INCREASE IN SYNTHESIS OF TYPE-I COLLAGEN [1]: 47.3%
- % Expression induction ([2]; ACTN1 (Actinin, alpha 1)): 27.4%
- % Expression induction ([2]; CAPNS1 (Calpain, small subunit 1)): 22.1%
- % Expression induction ([2]; CAPNS2 (Calpain, small subunit 2)): 17.9%
- % Expression induction ([2]; COL1A2 (Collagen, type-I, alpha 2)): 31.1%
- % Expression induction ([2]; COL4A1 (Collagen, type-IV, alpha 1)): 18.9%
- % Expression induction ([2]; COL4A2 (Collagen, type-IV, alpha 2)): 8.3%
- % Expression induction ([2]; COL6A2 (Collagen, type-VI, alpha 2)): 16.0%
- % Expression induction ([2]; COL6A3 (Collagen, type-VI, alpha 3)): 18.6%
- % Expression induction ([2]; COL11A1 (Collagen, type-XI, alpha 1)): 7.2%
- % Expression induction ([2]; COL14A1 (Collagen, type-XIV, alpha 1)): 36.1%
- % Expression induction ([2]; COL22A1 (Collagen, type-XXII, alpha 1)): 7.7%
- % Expression induction ([2]; COL27A1 (Collagen, type-XXVII, alpha 1)): 14.2%
- % Expression induction ([2]; GSN (Gelsolin)): 30.1%
- % Expression induction ([2]; ITGB1 (Integrin, beta 1)): 33.0%
- % Expression induction ([2]; PCOLCE (Procollagen C-endopeptidase enhancer)): 22.4%
- % Expression induction ([2]; PFN1 (Profilin 1)): 36.8%
- % Expression induction ([2]; PLOD3 (Procollagen-lysine, 2-oxoglutarate 5-dioxygenase 3)): 20.7%
- % Expression induction ([2]; ROCK1 (Rho-associated, coiled-coil containing protein kinase 1)): 22.7%
- % Expression induction ([2]; SERPINH1 (heat shock protein 47)): 25.3%
- % Expression induction ([2]; TLN1 (Talin 1)): 27.5%
- % Expression induction ([2]; VCL (Vinculin)): 4.2%
- % Expression induction ([2]; ZYX (Zyxin)): 35.7%
- INCREASE IN ELASTIN SYNTHESIS [3]: 21.7%
